Source: patent publication US20250339450A1, “TREATMENT OF SYNGAP1 ENCEPHALOPATHY” (Harmony Biosciences Management, Inc., priority 2019, published 2025)

Test system: patients with SYNGAP1
Assay: Four patients with SYNGAP1 in Study ZYN2-CL-025 (BELIEVE)
Assay type: in vivo, human
Conditions: SYNGAP1 encephalopathy patients; across the 26-week treatment period; transdermal
Excerpt: The trial summarized in the examples—a Phase 2 open label clinical trial—assessed the safety and efficacy of transdermal administration of CBD in a heterogeneous group of SYNGAP1 encephalopathy and other rare developmental and epileptic encephalopathies (DEEs), including but not limited to Dravet Syndrome (DS) and Lennox-Gastaut Syndrome (LGS). Some of the most common and debilitating SYNGAP1 encephalopathy seizure types are focal impaired-awareness and convulsive seizures. Patients with SYNGAP1 encephalopathy who experienced these seizure types, such as SYNGAP1 seizures, experienced seizure reductions of up to 73% across the 26-week treatment period. Qualitative assessments by caregivers in the study indicate improved behavioral problems including improved mood, engagement with others, learning ability, alertness, school attendance, as well as cognitive symptoms.
This was a sequential, multi-stage, open-label, multi-national, multiple-center, multiple-dose study to assess the long-term safety and tolerability of ZYN002 (transdermal CBD gel) in child and adolescent epilepsy patients from 3 to 18 years of age having seizures associated with developmental and epileptic encephalopathies (DEE) according to the International League Against Epilepsy (ILEA) classification (Scheffer et al. 2017). […]

In the case of C=C(C)C1CCC(C)=CC1c1c(O)cc(CCCCC)cc1O (stereo not shown) [CBD, 2-[3-methyl-6-(1-methylethenyl)-2-cyclohexen-1-yl]-5-pentyl-1,3-benzenediol], the seizure reductions is reported as “up to 73%”.
